Laboratory results taken from patent US8217176B2, “Fused heterocyclic derivative and use thereof” (Takeda Pharmaceutical Company Limited, priority 2008, dated 2012).
Counter-ions that a name gives are not always drawn.

What was measured:
[1] = system: NIH-3T3/Gli reporter cells; experiment: Evaluation of compound: Shh-N-induced luciferase activity in NIH-3T3/Gli reporter cells (Smo inhibitory action); assay type: cell-based; conditions: 48 hr; for inhibition at 1 µM: NIH3T3, 1 μM compound, mouse Shh-N end fragment supernatant, read-out: inhibition rate (%) at 1 μM; for IC50: NIH3T3, mouse Shh-N end fragment supernatant, read-out: IC50 value (compound concentration necessary for achieving 50% of the maximum value of inhibition rate)
Protocol: HEK293 cells were grown in D-MEM medium (Invitrogen) containing 10% fetal bovine serum in a 10 cm dish and pcDNA3.1/mShh-N was introduced into the cells using FuGENE6 (Roche Applied Science). Thereafter, the HEK293 cells were cultured in a carbon dioxide gas incubator at 37° C. for 24 hours, and the medium was exchanged with D-MEM medium (Invitrogen) containing 2% fetal bovine serum. After culturing for 48 hr, a culture supernatant containing recombinant type mouse Shh-N end fragment was obtained by filtration using a filter ([…]).
Using D-MEM (Invitrogen) containing 10% fetal bovine serum, expression plasmid pcDNA3.1 and Gli reporter plasmid (pGL3/δ-cry promoter, 8×Gli binding site) produced by the method of Experimental Example 1 were introduced into NIH-3T3 cells grown in a 10 cm dish by the use of FuGENE6 (Roche Applied Science).
After culture for 24 hr, the cells were recovered, suspended in D-MEM medium containing 10% fetal bovine serum and supplemented with Geneticin (Life Technologies Oriental, Inc.) to a final concentration of 500 μg/ml, diluted to 10^4 cells/ml, plated on a 96 well plate, and cultured in a carbon dioxide gas incubator at 37° C. to give Geneticin resistant transformed cell line.
The obtained transformed cell line was cultured in a 96 well plate, mouse Shh-N end fragment obtained in Experimental Example 3 was added, and NIH-3T3/Gli reporter cell, which is a cell line capable of induction of luciferase expression, was selected.
NIH-3T3/Gli reporter cells cultured in D-MEM (Invitrogen) containing 10% fetal bovine serum were plated in a 96 well white plate at 1×10^4 cells/well, and cultured overnight in a carbon dioxide gas incubator at 37° C. The medium was removed, a compound (50 μl) and culture supernatant of mouse Shh-N end fragment-expressing HEK293 (D-MEM medium containing 2% fetal bovine serum, 50 μl) were added, and the cells were cultured for 48 hr in a carbon dioxide gas incubator at 37° C. Bright-Glo (Promega, 50 μl) was added, and the mixture was stirred, after which luciferase activity was measured by EnVision (PerkinElmer). The inhibition rate was calculated based on the luciferase activity of the control without addition of the compound as 100. The concentration of the compound and the inhibition rate were analyzed by PRISM3.00 (software of GraphPad), based on which the IC50 value (compound concentration necessary for achieving 50% of the maximum value of inhibition rate) of the compound was calculated.

[2] = system: mouse medulloblastoma allogeneic transplantation model; experiment: In vivo anti-tumor test, mouse medulloblastoma allogeneic transplantation model; conditions: 6.25 mg/kg orally twice a day for 2 weeks; nude mouse, subcutaneous medulloblastoma from Patched 1(+/-), p53(-/-) mouse; end of administration
Protocol: According to the description in Sasaki, K. et al., (2006) Cancer Res. 66: 4215-4222, an anti-tumor effect of a compound was evaluated using a mouse medulloblastoma allogeneic transplantation model. To be precise, Patched 1 gene mutant mouse (lineage name: Ptch1tm1Mps/J) was purchased from The Jackson Laboratory and p53 gene mutant mouse (lineage name: P53N4-M, Nomenclature: B6.129-Trp53tm/BrdN4) was purchased from Taconic, and a mouse of Patched 1(+/−), p53(−/−) phenotype was prepared by mating. The tumor tissue of medulloblastoma spontaneously occurred in the cerebellum of 7- to 9-week-old Patched 1(+/−), p53(−/−) mouse was taken and subcutaneously transplanted into a nude mouse (lineage name: CAnN.Cg-Foxn1/CrlCrlj).
An anti-tumor test was performed using a tumor passaged by subcutaneous transplantation. A tumor mass was isolated by a 40 μm cell strainer (BD Biosciences, Cat. No. 352340), a tumor suspension was prepared with Leibovitz's L-15 medium (GIBCO, Cat. No. 11415-114) in a 2-fold amount relative to the tumor mass weight, mixed with an equivalent amount of matrigel (BD Biosciences, Cat. No. 356237), and subcutaneously transplanted to a mouse at […] per transplantation site. The tumor diameter after transplantation was measured and, when the tumor size reached 150-250 mm^3, the anti-tumor test was started using 5 mice per group.
The test compound was prepared to achieve a dose of 6.25 mg/kg with a 0.5% methylcellulose (Shin-Etsu Chemical Co., Ltd., Cat. No. SM-100) suspension, and orally administered twice a day for 2 weeks. The tumor size was calculated based on the longer diameter and shorter diameter of the tumor measured with an electron vernier caliper. After the start of the test, the tumor size was measured every 2 or 3 days and the growth rate of the tumor size was calculated. A tumor growth inhibitory effect of 95% or above was confirmed in each test compound administration group.
The tumor growth rate and the results of a significant difference test by the administration of each test compound are shown in the Table. The growth rate of the tumor size (T/C) was calculated according to: growth rate (T/C)=((tumor size of compound administration group at the end of administration)−(tumor size of compound administration group at the start of administration))/((tumor size of control group at the end of administration)−(tumor size of control group at the start of administration))×100.

Compound | inhibition at 1 µM [1] [%] | T/C (%) growth rate of the tumor size [2] [%] | IC50 [1] [nM]
Cc1cc2c(c(OCC(F)(F)F)c(C(=O)NC3CCN(C(=O)CO)CC3)n2C)c(=O)n1CC(=O)c1ccccc1 [Example 140, N-[1-(hydroxyacetyl)piperidin-4-yl]-1,6-dimethyl-4-oxo-5-(2-oxo-2-phenylethyl)-3-(2,2,2-trifluoroethoxy)-4,5-dihydro-1H-pyrrolo[3,2-c]pyridine-2-carboxamide] | 100 | 5.3 | –
CCOc1c(C(=O)NC2CCN(C(=O)CO)CC2)n(C)c2cc(CC)n(CC(=O)c3ccccc3)c(=O)c12 [Example 139, 3-ethoxy-6-ethyl-N-[1-(hydroxyacetyl)piperidin-4-yl]-1-methyl-4-oxo-5-(2-oxo-2-phenylethyl)-4,5-dihydro-1H-pyrrolo[3,2-c]pyridine-2-carboxamide] | 100 | 0.4 | –
COc1c(C(=O)NC2CCN(CCO)CC2)n(C)c2c1c(=O)n(CC(=O)c1ccccc1)c1ccccc21 [Example 79, N-[1-(2-hydroxyethyl)piperidin-4-yl]-3-methoxy-1-methyl-4-oxo-5-(2-oxo-2-phenylethyl)-4,5-dihydro-1H-pyrrolo[3,2-c]quinoline-2-carboxamide] | 100 | 0.8 | ≤ 1000
COc1c(C(=O)NC2CCN(C(=O)CO)CC2)n(C)c2c1c(=O)n(CC(=O)c1ccccc1)c1ccccc21 [Example 124, N-[1-(hydroxyacetyl)piperidin-4-yl]-3-methoxy-1-methyl-4-oxo-5-(2-oxo-2-phenylethyl)-4,5-dihydro-1H-pyrrolo[3,2-c]quinoline-2-carboxamide] | 100 | 2.0 | –
CCc1cc2c(c(OCC(F)(F)F)c(C(=O)NC3CCN(C(=O)CO)CC3)n2C)c(=O)n1CC(=O)c1ccccc1 [Example 143, 6-ethyl-N-[1-(hydroxyacetyl)piperidin-4-yl]-1-methyl-4-oxo-5-(2-oxo-2-phenylethyl)-3-(2,2,2-trifluoroethoxy)-4,5-dihydro-1H-pyrrolo[3,2-c]pyridine-2-carboxamide] | 100 | 0.0 | –
CCc1cc2c(c(OCC(F)(F)F)c(C(=O)NC3CCN(C(=O)CO)CC3)n2C)c(=O)n1Cc1ccccc1Cl [Example 660, 5-(2-chlorobenzyl)-6-ethyl-N-[1-(hydroxyacetyl)piperidin-4-yl]-1-methyl-4-oxo-3-(2,2,2-trifluoroethoxy)-4,5-dihydro-1H-pyrrolo[3,2-c]pyridine-2-carboxamide] | 100 | – | –
COc1c(C(=O)N2CCCN(C)CC2)sc2c1c(=O)n(CC(=O)c1ccccc1)c1ccccc21 [Example 17, 3-methoxy-2-[(4-methyl-1,4-diazepan-1-yl)carbonyl]-5-(2-oxo-2-phenylethyl)thieno[3,2-c]quinolin-4(5H)-one trifluoroacetate] | 99 | – | ≤ 1000
COc1c(C(=O)NCCN2CCCCC2)sc2c1c(=O)n(CC(=O)c1ccccc1)c1ccccc21 [Example 9, 3-methoxy-4-oxo-5-(2-oxo-2-phenylethyl)-N-(2-piperidin-1-ylethyl)-4,5-dihydrothieno[3,2-c]quinoline-2-carboxamide trifluoroacetate] | 100 | – | ≤ 1000
CCN(CC)CCN(C)C(=O)c1sc2c(c1OC)c(=O)n(Cc1ccc(OC)cc1)c1ccccc21 [Example 48, N-[2-(diethylamino)ethyl]-3-methoxy-5-(4-methoxybenzyl)-N-methyl-4-oxo-4,5-dihydrothieno[3,2-c] quinoline-2-carboxamide hydrochloride] | 10 | – | ≤ 1000
COc1c(C(=O)N2CCCCC2CN)sc2c1c(=O)n(CC(=O)c1ccccc1)c1ccccc21 (stereo not shown) [Example 73, 2-{[2-(aminomethyl)piperidin-1-yl]carbonyl}-3-methoxy-5-(2-oxo-2-phenylethyl)thieno[3,2-c]quinolin-4(5H)-one hydrochloride] | 100 | – | ≤ 1000
CCOc1c(C(=O)NCC(C)(C)O)n(C)c2cc(C)n(CC(=O)c3ccccc3)c(=O)c12 [Example 132, 3-ethoxy-N-(2-hydroxy-2-methylpropyl)-1,6-dimethyl-4-oxo-5-(2-oxo-2-phenylethyl)-4,5-dihydro-1H-pyrrolo[3,2-c]pyridine-2-carboxamide] | 100 | – | –
CCOc1c(C(=O)NC2CCN(C(=O)CO)CC2)n(C)c2cc(C)n(CC(=O)c3ccccc3)c(=O)c12 [Example 136, 3-ethoxy-N-[1-(hydroxyacetyl)piperidin-4-yl]-1,6-dimethyl-4-oxo-5-(2-oxo-2-phenylethyl)-4,5-dihydro-1H-pyrrolo[3,2-c]pyridine-2-carboxamide] | 100 | – | –
COc1c(C(=O)NC2CCN(c3ccncn3)CC2)n(C)c2c1c(=O)n(CC(=O)c1ccccc1)c1ccccc21 [Example 583, 3-methoxy-1-methyl-4-oxo-5-(2-oxo-2-phenylethyl)-N-(1-pyrimidin-4-ylpiperidin-4-yl)-4,5-dihydro-1H-pyrrolo[3,2-c]quinoline-2-carboxamide] | 100 | – | –
COc1c(C(=O)NC2CCN(C(=O)CO)CC2)n(C)c2c1c(=O)n(CC(=O)c1ccccc1)c1ncccc21 [Example 643, N-[1-(hydroxyacetyl)piperidin-4-yl]-3-methoxy-1-methyl-4-oxo-5-(2-oxo-2-phenylethyl)-4,5-dihydro-1H-pyrrolo[3,2-c][1,8]naphthyridine-2-carboxamide] | 100 | – | –
COc1c(C(=O)NC2CCN(C(=O)CCO)CC2)n(C)c2c1c(=O)n(CC(=O)c1ccccc1)c1ccccc21 [Example 517, N-[1-(3-hydroxypropanoyl)piperidin-4-yl]-3-methoxy-1-methyl-4-oxo-5-(2-oxo-2-phenylethyl)-4,5-dihydro-1H-pyrrolo[3,2-c]quinoline-2-carboxamide] | 100 | – | –
